This note sets out measurements from patent publication EP2636410A1, “Utilization of the dichlorido complexes of platinum with 7-azaindole halogeno-derivatives for the preparation of drugs for the treatment of tumour diseases” (Univerzita Palackeho, priority 2012, dated 2013).

Assay in all cases: In vitro cytotoxicity, MTT micro-titration analysis
Common to all, as to format: cell-based

Test [1] concerns human cancer cell line of ovarian carcinoma A2780. The settings on record: A2780 cells, 24 h incubation with complex, read-out: inhibition concentrations IC50. The method, then:
(§1) The cytotoxic activities of the prepared complexes, as it is given below in the examples 1-6, were tested by micro-titration analysis using 3-(4,5-dimethylthiazol-2-yl)-2,5-diphenyltetrazolium bromide (MTT). The test detected living cells, whose number corresponds to the reduced MTT quantity. In vitro cytotoxicity was tested against the following human cancer cells: lung carcinoma A549, malignant melanoma G361, cervix carcinoma HeLa, ovarian carcinoma A2780, cisplatin-resistant ovarian carcinoma A2780R and prostate carcinoma LNCaP. The cells were maintained in plastic tissue culture flasks in the DMEM medium (5 g/L of glucose, 2 mM of glutamine, 100 U/mL of penicillin, 100 µg/mL of streptomycine, 10% fetal calf serum and sodium hydrogen carbonate) for cell cultures. The cell suspensions (ca 1.25 x 10^5 cells mL^-1) were pipetted (80 µL) into 96-well microplates. They were incubated at 37 °C in the CO2 atmosphere for 24 h. The tested dichlorido complexes of platinum were dissolved in N,N'-dimethylformamide (DMF) and diluted to the 50.0 mM concentration - these solutions represent the stock solutions. […]
The in vitro antitumor activity of the studied complexes cis-[PtCl2(L2)2] […] (3) against human cancer cell line of ovarian carcinoma A2780 was determined by the above-described micro-titration analysis using MTT (L2 = 3-chloro-7-azaindole, L3 = 3-iodo-7-azaindole, L6 = 5-bromo-7-azaindole).

In test [2] the test system is human cancer cell line of prostate carcinoma LNCaP. The settings on record: LNCaP cells, 24 h incubation with complex, read-out: inhibition concentrations IC50. The method, then:
as §1
The in vitro antitumor activity of the studied complexes cis-[PtCl2(L2)2] […] (3) against human cancer cell line of prostate carcinoma LNCaP was determined by the above-described micro-titration analysis using MTT (L2 = 3-chloro-7-azaindole, L3 = 3-iodo-7-azaindole, L6 = 5-bromo-7-azaindole).

Test [3] concerns human cancer cell line of lung carcinoma A549. The settings on record: A549 cells, 24 h incubation with complex, read-out: inhibition concentrations IC50. The procedure: as §1
The in vitro antitumor activity of the studied complexes cis-[PtCl2(L2)2] […] (3) against human cancer cell line of lung carcinoma A549 was determined by the above-described micro-titration analysis using MTT (L2= 3-chloro-7-azaindole, L3 = 3-iodo-7-azaindole, L6 = 5-bromo-7-azaindole).

Test [4] concerns human cancer cell line of cisplatin-resistant ovarian carcinoma A2780R. The settings on record: A2780R cells, 24 h incubation with complex, read-out: inhibition concentrations IC50. The method, then:
as §1, with “h.” for “h. The tested dichlorido complexes of platinum were dissolved in N,N'-dimethylformamide (DMF) and diluted to the 50.0 mM concentration - these solutions represent the stock solutions.”
The in vitro antitumor activity of the studied complexes cis-[PtCl2(L2)2] […] (3) against human cancer cell line of cisplatin-resistant ovarian carcinoma A2780R was determined by the above-described micro-titration analysis using MTT (L2 = 3-chloro-7-azaindole, L3 = 3-iodo-7-azaindole, L6 = 5-bromo-7-azaindole).

The test system of test [5] is human cancer cell line of cervix carcinoma HeLa. The settings on record: HeLa cells, 24 h incubation with complex, read-out: inhibition concentrations IC50. The method, then:
as §1
The in vitro antitumor activity of the studied complexes cis-[PtCl2(L2)2] […] (3) against human cancer cell line of cervix carcinoma HeLa was determined by the above-described micro-titration analysis using MTT (L2 = 3-chloro-7-azaindole, L3 = 3-iodo-7-azaindole, L6 = 5-bromo-7-azaindole).

Test [6] has as its system human cancer cell line of malignant melanoma G361. The conditions noted are these: G361 cells, 24 h incubation with complex, read-out: inhibition concentrations IC50. The procedure:
as §1
The in vitro antitumor activity of the studied complexes cis-[PtCl2(L2)2] […] (3) against human cancer cell line of malignant melanoma G361 was determined by the above-described micro-titration analysis using MTT (L2 = 3-chloro-7-azaindole, L3 = 3-iodo-7-azaindole, L6 = 5-bromo-7-azaindole).

As for `N.N.[Cl][Pt][Cl]` [cisplatin, Cis-diammine-dichloridoplatinum(II) complex, reference compound], the IC50 was 12 ± 0.8 µM in test [1]; 3.8 ± 1.5 µM in test [2]; 25.8 ± 7.1 µM in test [3]; 27 ± 4.6 µM in test [4]; 10 ± 2.6 µM in test [5]; 3.4 ± 0.1 µM in test [6].
